Assay results: BindingDB's records for doi:10.1021/ml400235c (Korea Research Institute of Technology, 2013)

Tests used:
[1] = Antagonist activity at PAR1 in washed human platelets assessed as inhibition of haTRAP-induced platelet aggregation preincubated for 1 hr followed by haTRAP addition measured for 10 mins by spectrophotometric analysis
[2] = Antagonist activity at PAR1 in human platelet rich plasma assessed as inhibition of haTRAP-induced platelet aggregation preincubated for 1 hr followed by haTRAP addition measured for 10 mins by spectrophotometric analysis

An IC50 [1] of 7.2 nM and an IC50 [2] of 210 nM were found for `O=C1NCC2(C[C@@H]3CCCC[C@@H]3[C@H]2C=Cc2ccc(-c3cccc(F)c3)cn2)O1` (stereo not given in full) in this work.

An IC50 [1] of 2.2 nM and an IC50 [2] of 97 nM were found for `CN(C1C[C@@H]2CCCC[C@@H]2[C@H]1/C=C/c1ccc(-c2cccc(F)c2)cn1)S(C)(=O)=O` (stereo not given in full) in this work.

An IC50 [1] of 140 nM and an IC50 [2] of 3900 nM were found for `CS(=O)(=O)NC1C[C@@H]2CCCC[C@@H]2[C@H]1/C=C/c1ccc(-c2cccc(F)c2)cn1` (stereo not given in full) in this work.

An IC50 [1] of 1.5 nM and an IC50 [2] of 120 nM were found for `CCOC(=O)N[C@@H]1CC[C@@H]2[C@@H](C1)C[C@H]1C(=O)O[C@H](C)[C@H]1[C@H]2C=Cc1ccc(-c2cccc(F)c2)cn1` [Ethyl [(3aR,4aR,8aR,9aS)-9(S)-[(E)-2-[5-(3-fluorophenyl)-2-pyridinyl]ethenyl]dodecahydro-1(R)-methyl-3-oxonaphtho[2,3-c]furan-6(R)-yl]carbamate] in this work.

An IC50 [1] of 410 nM and an IC50 [2] of 4100 nM were found for `Fc1cccc(-c2ccc(/C=C/[C@@H]3[C@H]4CCCC[C@H]4CC34OCCO4)nc2)c1` in this work.

An IC50 [1] of 6 nM was found for `CS(=O)(=O)OC1C[C@@H]2CCCC[C@@H]2[C@H]1/C=C/c1ccc(-c2cccc(F)c2)cn1` (stereo not given in full) in this work.

An IC50 [1] of 2.9 nM and an IC50 [2] of 100 nM were found for `CC1(OC(N)=O)C[C@@H]2CCCC[C@@H]2[C@H]1C=Cc1ccc(-c2cccc(F)c2)cn1` (stereo not given in full) in this work.

An IC50 [1] of 210 nM and an IC50 [2] of 8900 nM were found for `CC(=O)N(C)C1C[C@@H]2CCCC[C@@H]2[C@H]1/C=C/c1ccc(-c2cccc(F)c2)cn1` (stereo not given in full) in this work.
